Measured values from patent publication US8232448B2, “Transgenic mouse with a homozygous mutation in the CMAH gene” (The Regents of the University of California, priority 2005, dated 2012).

Legend:
[1] = test system: normal human skin fibroblasts; assay: Neu5Gc/ManNGc feeding experiment, normal (WT) fibroblasts, DMB-HPLC; format: cell-based
Method: (§1) Neu5Gc and ManNGc Feeding Experiment—Neu5Ac, Neu5Gc or ManNGc were dried, dissolved in the appropriate media supplemented with heat-inactivated human serum, sterilized using a Spin-X® (Corning Inc., Corning, N.Y.) and then added to the cells. The pH of the media containing Sia was adjusted to neutrality using sterilized 1M NaOH before starting the feeding experiment. Cells were cultured in the presence of up to 3 mM free Sia or ManNGc for 1 or 3 days at 37° C. At the end of the feeding, cells were washed with cold PBS, harvested either by scraping or with 2 mM EDTA for fibroblasts, and washed again with cold PBS prior to fractionation.
Fractionation of the Labeled Cells—Washed cell pellets were sonicated into 500 μL of 20 mM sodium phosphate buffer or 20 mM Tris-HCl, pH 7.5, using 4×15 second pulses of a sonicator cell disrupter, model Some Dismembrator (Fisher Scientific, Hampton, N.J.) at a probe setting of 3. The sonicate was centrifuged at 75×g for 15 min., and the pellet Obtained consisted primarily of nuclei and unbroken cells. The pellet contained <5% of the incorporated sialic acid as determined using a radioactive tracer (data not shown.) The supernatant was therefore considered as the “total homogenate” fraction. A portion (20%) of the “total homogenate” fraction was taken for protein quantification and Sia analysis by DMB derivatization and HPLC analysis (as discussed below.) The remainder was centrifuged at 100,000×g for 1 h. The resulting pellet, called the “membrane” fraction, was then resuspended by sonication (15 sec.) in 200 μl of sodium acetate buffer, pH 5.5. The 100,000×g supernatant, called the “soluble” fraction was adjusted to 90% ethanol using absolute ice-cold ethanol, and placed overnight at −20° C. The flocculant precipitate, which represents the “soluble protein” fraction, was washed 3 times with 90%® ice-cold ethanol and then resuspended in 200 μl of water. The supernatant fluid representing the cytosolic low molecular weight (LMW) fraction was dried and brought up in 100 μL with water prior to Sia analysis. All the Sias in these fractions were released with mild acid hydrolysis if necessary and then analyzed by HPLC after DMB derivatization. Protein quantification was performed on the total homogenate, membrane and soluble protein fractions by using the BCA protein assay kit from Pierce (Rockford, Ill.) In some experiments, the resulting data obtained for the Sia bound to the membrane fraction and to the soluble proteins were pooled and presented here as a High Molecular Weight (HMW) fraction.
Sialic Acid Release, DMB Derivatization and HPLC Analysis—The bound Sias from the total homogenate, membrane and soluble protein fractions were released using 2M acetic acid hydrolysis, 3 h. at 80° C. The released Sias, or free Sias, contained in the soluble LMW fraction were passed through a Microcon® YM-10 filter (Millipore, Bedford, Mass.) prior to DMB derivatization, which was done according to Hara et al., 1989. DMB-Sia derivatives from the different fractions were then analyzed by HPLC using a C18 column (Microsorb MV-TM 100 A, Varian, Palo Alto, Calif.) Isocratic elution was achieved using 7% methanol, 8% acetonitrile in water during 50 min. at 0.9 ml/min flow. The eluant was monitored by fluorescence.
Quantification of Sias—For all HPLC chromatograms, the quantification of Sias was done by comparison with known quantities of DMB derivatized Neu5Gc and Neu5Ac used as standards and then reported in terms of pmoles of Sia. […]

[2] = test system: human LB EBV-transformed lymphoblasts; assay: Neu5Gc/Neu5Ac feeding experiment, human lymphoblasts; format: cell-based; settings: human lymphoblasts fed 3 mM for 3 days
Method: Cell Culture—Caco-2 cells were propagated in alpha-MEM containing GLUTAMAX™ (Invitrogen, San Diego, Calif.) and a mixture of ribonucleosides and deoxyribonucleosides (Gibco/Invitrogen, San Diego, Calif.) supplemented with 20% FCS. All the fibroblast cell lines and CHO-K1 cells were cultured in the same media supplemented respectively with 15% non-heat inactivated FCS or 10% heat inactivated FCS. Chimpanzee Fred and human LB EBV-transformed lymphoblasts were cultured in RPMI-1640 (Gibco/Invitrogen, San Diego, Calif.) supplemented with 10% heat inactivated FCS or 15% human serum. All of the cultures were maintained at 37° C., 5% CO2 atmosphere. In order to deplete any remaining Neu5Gc from FCS, the cells were split and cultured prior to Neu5Gc feeding experiments for at least 4 days in alpha-MEM supplemented with an adequate percentage of heat-inactivated premium human serum instead of FCS. The cells were then maintained under the same conditions during the whole feeding experiment. The human serum was heat inactivated at 56° C. for 30 min. before use.
as §1, with “At the end of the feeding, cells were washed with cold PBS, harvested either by scraping or with 2 mM EDTA for fibroblasts, and washed again with cold PBS prior to fractionation.” left out
Fractionation of the Labeled Cells—Washed cell pellets were sonicated into 500 μL of 20 mM sodium phosphate buffer or 20 mM Tris-HCl, pH 7.5, using 4×15 second pulses of a sonicator cell disrupter, model Some Dismembrator (Fisher Scientific, Hampton, N.J.) at a probe setting of 3. […] The pellet contained <5% of the incorporated sialic acid as determined using a radioactive tracer (data not shown.) The supernatant was therefore considered as the “total homogenate” fraction. A portion (20%) of the “total homogenate” fraction was taken for protein quantification and Sia analysis by DMB derivatization and HPLC analysis (as discussed below.) The remainder was centrifuged at 100,000×g for 1 h. […] All the Sias in these fractions were released with mild acid hydrolysis if necessary and then analyzed by HPLC after DMB derivatization. Protein quantification was performed on the total homogenate, membrane and soluble protein fractions by using the BCA protein assay kit from Pierce (Rockford, Ill.) In some experiments, the resulting data obtained for the Sia bound to the membrane fraction and to the soluble proteins were pooled and presented here as a High Molecular Weight (HMW) fraction. […]

[3] = test system: Human neuroblastoma cells; assay: Neu5Gc feeding experiment, neuroblastoma cells; format: cell-based; settings: fed 3 mM for 3 days
Method: as §1
Fractionation of the Labeled Cells—Washed cell pellets were sonicated into 500 μL of 20 mM sodium phosphate buffer or 20 mM Tris-HCl, pH 7.5, using 4×15 second pulses of a sonicator cell disrupter, model Some Dismembrator (Fisher Scientific, Hampton, N.J.) at a probe setting of 3. […] The pellet contained <5% of the incorporated sialic acid as determined using a radioactive tracer (data not shown.) The supernatant was therefore considered as the “total homogenate” fraction. A portion (20%) of the “total homogenate” fraction was taken for protein quantification and Sia analysis by DMB derivatization and HPLC analysis (as discussed below.) The remainder was centrifuged at 100,000×g for 1 h. […]

[4] = test system: chimpanzee lymphoblasts; assay: Neu5Gc/Neu5Ac feeding experiment, chimpanzee lymphoblasts; format: cell-based; settings: chimpanzee lymphoblasts fed 3 mM for 3 days
[5] = test system: Caco-2 cells; assay: Neu5Gc feeding experiment, Neu5Gc in subcellular fractions by DMB-HPLC; format: cell-based, human; settings: fed 3 mM for 3 days
Method: as §1
Fractionation of the Labeled Cells—Washed cell pellets were sonicated into 500 μL of 20 mM sodium phosphate buffer or 20 mM Tris-HCl, pH 7.5, using 4×15 second pulses of a sonicator cell disrupter, model Some Dismembrator (Fisher Scientific, Hampton, N.J.) at a probe setting of 3. The sonicate was centrifuged at 75×g for 15 min., and the pellet Obtained consisted primarily of nuclei and unbroken cells. The pellet contained <5% of the incorporated sialic acid as determined using a radioactive tracer (data not shown.) The supernatant was therefore considered as the “total homogenate” fraction. A portion (20%) of the “total homogenate” fraction was taken for protein quantification and Sia analysis by DMB derivatization and HPLC analysis (as discussed below.) The remainder was centrifuged at 100,000×g for 1 h. The resulting pellet, called the “membrane” fraction, was then resuspended by sonication (15 sec.) in 200 μl of sodium acetate buffer, pH 5.5. […] All the Sias in these fractions were released with mild acid hydrolysis if necessary and then analyzed by HPLC after DMB derivatization. Protein quantification was performed on the total homogenate, membrane and soluble protein fractions by using the BCA protein assay kit from Pierce (Rockford, Ill.) In some experiments, the resulting data obtained for the Sia bound to the membrane fraction and to the soluble proteins were pooled and presented here as a High Molecular Weight (HMW) fraction. […]

[6] = test system: Caco-2 cells; assay: Endocytosis inhibition experiments (Neu5Gc incorporation); format: cell-based, human; settings: Caco-2, 2 h pre-treatment with drug, then 3 mM Neu5Gc
Method: The sonicate was centrifuged at 75×g for 15 min., and the pellet Obtained consisted primarily of nuclei and unbroken cells. […] A portion (20%) of the “total homogenate” fraction was taken for protein quantification and Sia analysis by DMB derivatization and HPLC analysis (as discussed below.) The remainder was centrifuged at 100,000×g for 1 h. The resulting pellet, called the “membrane” fraction, was then resuspended by sonication (15 sec.) in 200 μl of sodium acetate buffer, pH 5.5. The 100,000×g supernatant, called the “soluble” fraction was adjusted to 90% ethanol using absolute ice-cold ethanol, and placed overnight at −20° C. The flocculant precipitate, which represents the “soluble protein” fraction, was washed 3 times with 90%® ice-cold ethanol and then resuspended in 200 μl of water. The supernatant fluid representing the cytosolic low molecular weight (LMW) fraction was dried and brought up in 100 μL with water prior to Sia analysis. All the Sias in these fractions were released with mild acid hydrolysis if necessary and then analyzed by HPLC after DMB derivatization. Protein quantification was performed on the total homogenate, membrane and soluble protein fractions by using the BCA protein assay kit from Pierce (Rockford, Ill.) In some experiments, the resulting data obtained for the Sia bound to the membrane fraction and to the soluble proteins were pooled and presented here as a High Molecular Weight (HMW) fraction. Sialic Acid Release, DMB Derivatization and HPLC Analysis—The bound Sias from the total homogenate, membrane and soluble protein fractions were released using 2M acetic acid hydrolysis, 3 h. at 80° C. The released Sias, or free Sias, contained in the soluble LMW fraction were passed through a Microcon® YM-10 filter (Millipore, Bedford, Mass.) prior to DMB derivatization, which was done according to Hara et al., 1989. […] The eluant was monitored by fluorescence. Quantification of Sias—For all HPLC chromatograms, the quantification of Sias was done by comparison with known quantities of DMB derivatized Neu5Gc and Neu5Ac used as standards and then reported in terms of pmoles of Sia. For total homogenate, membrane and cytosolic protein fractions, this number was expressed per mg of protein. Due to minor sample-to-sample variations in amounts and recoveries, the data in the Figures is presented as percent of Neu5Gc over total Sias, rather than as absolute amounts. Endocytosis Inhibition Experiments—Caco-2 or normal fibroblast cells were split and cultured in alpha-MEM media supplemented respectively with 20% or 15% human serum for 4 days before starting the endocytosis drug inhibition experiments in order to deplete any Neu5Gc derived from FCS. Cells were then pre-treated for 2 h. with the specific inhibitors under the same culture conditions. Fresh media containing the same amount of inhibitor and 3 mM of Neu5Gc was then added to the cells, which were incubated for 16 h or 3 days and finally harvested and fractionated as described above.

[7] = human normal fibroblasts after 3 mM Neu5Gc feeding, 3 days

## O=C(CO)N[C@H]1[C@H]([C@H](O)[C@H](O)CO)OC(O)(C(=O)O)C[C@@H]1O (stereo partly shown) [Neu5Gc, N-glycolylneuraminic acid]
[1]; [7]
  Neu5Gc (percent of total Sia), HMW fraction: 39%
  Neu5Gc (percent of total Sia), TH fraction: 28%
  Neu5Gc (percent of total Sia), cytosolic LMW fraction: 41%
[1]; normal wild-type (WT) fibroblasts, fed 3 mM for 3 days
  percent of Neu5Gc in membrane-bound glycoconjugates: 37%
[2]
  Neu5Gc (percent of total Sia), HMW fraction: 51%
  Neu5Gc (percent of total Sia), LMW cytosolic fraction: 80%
  Neu5Gc (percent of total Sia), TH fraction: 67%
[3]
  Neu5Gc incorporation efficiency: efficiency comparable to the Caco-2 cells
[4]; non-fed baseline 57%
  Neu5Gc (percent of total Sia), TH fraction: 70%
[4]; non-fed baseline 66%
  Neu5Gc (percent of total Sia), HMW fraction: 72%
[4]; non-fed baseline 70%
  Neu5Gc (percent of total Sia), LMW fraction: 84%
[5]
  Neu5Gc (percent of total Sia), cytosolic low molecular weight (LMW) fraction: 70%
  Neu5Gc (percent of total Sia), high molecular weight fraction (HMW): 46%
  Neu5Gc (percent of total Sia), total homogenate (TH): 58%

## C[C@@H]1[C@H](O)[C@@H](C)/C=C/C=C/CC/C=C/C=C/C=C/C=C/C(O[C@H]2O[C@H](C)[C@@H](O)[C@H](N)[C@@H]2O)CC2O[C@](O)(CC(O)C(O)CCC(O)CC(O)CC(O)CC(=O)O[C@H]1C)CC(O)C2C(=O)O (stereo partly shown) [nystatin]
[6]
  Neu5Gc incorporation into membrane-bound glycoconjugates in the presence of inhibitor: 44%
  incorporation of Neu5Gc in the TH fraction in the presence of inhibitor: ~65%

## O=c1c(-c2ccc(O)cc2)coc2cc(O)cc(O)c12 [genistein]
[6]
  Neu5Gc incorporation into membrane-bound glycoconjugates in the presence of inhibitor: 34%
  incorporation of Neu5Gc in the TH fraction in the presence of inhibitor: 51%

## CN(C)CCCN1c2ccccc2Sc2ccc(Cl)cc21 [chlorpromazine]
[6]
  Neu5Gc incorporation into membrane-bound glycoconjugates in the presence of inhibitor: 50%
